Experimental data: patent US9738684B2, “N-terminally modified linear and branched polyamine conjugated peptidomimetics as antimicrobials agents” (COUNCIL OF SCIENTIFIC & INDUSTRIAL RESEARCH, priority 2015, dated 2017)
≈ marks a conversion by molar mass, not a printed value.

What was measured:
S. aureus (ATCC 33591) = test: Resistance development study, serial passage at sub MIC; assay type: cell-based, Staphylococcus aureus; details: 17 serial passages at sub MIC
Procedure: FIG. 5: Illustration of resistance development study in S. aureus (ATCC 33591) after 17 serial passages with sub MIC of 1c/1d or antibiotic treatment. The fold change in MIC is the ratio of the MIC after 17 passages relative to that MIC observed before first passage.
To determine potential of active peptidomimetics against resistance development, in vitro serial passage method at sub inhibitory concentration was done. Briefly, bacterial suspension (100 μL) from duplicate wells at the concentration of sub-MIC was used to inoculate fresh culture. The culture was grown to obtain approximately 10^5 CFU/mL for the next experiment. These bacterial suspensions were then incubated with desired concentration of antibacterial agents for 18 h to determine new MIC. The same sub culturing protocol was used for next 16 passages and MIC was determined using OD630 nm as described previously in the text [Chem. Biol., 20:1286-1295, 2013.]

[1] = test system: Escherichia coli (ATCC 11775); test: MIC, serial broth dilution; assay type: cell-based; design: MIC E. coli. (ATCC 11775): unit not given here; details: MHB, 18 h, 37° C.
Procedure: (§1) The peptidomimetics designed in present invention were evaluated as antibacterial therapeutics against a broad range of bacterial strains by broth microdilution method. The antibacterial activity of the peptidomimetics was reported in terms of the minimum inhibitory concentrations (MIC).
(§2) Following bacterial strains were used in this study: S. aureus (ATCC 29213), methicillin resistant S. aureus (ATCC 33591), Staphylococcus epidermidis (ATCC 12228), methicillin resistant Staphylococcus epidermidis(ATCC 51625), Enterococcus faecalis (ATCC 7080), Escherichia coli (ATCC 11775), and Acinetobacter baumannii (ATCC 19606). Antibacterial activity was evaluated using a modified serial broth dilution method in accordance with Clinical Laboratory Standard Institute guidelines [Methods for dilution antimicrobial susceptibility tests for bacteria that grow aerobically-7th ed. Approved standard M7-A7. Clinical and Laboratory Standards Institute, Wayne, Pa., Biochim. Biophys. Acta 1798:1864-1875, 2010.]. Briefly, the inoculums were prepared from mid-log phase bacterial cultures. Peptidomimetics were incubated with bacterial suspension in Muller Hinton broth media (10^5 CFU/mL) in 96 well microtitre plate. The plates were incubated overnight with agitation (200 rpm) at 37° C. After 18 h, absorbance was measured at 630 nm. Cultures without test peptidomimetics were used as positive control. Un-inoculated Mueller Hinton Broth (MHB) was used as negative control. Tests were carried out in duplicate on at least three different days. […] For comparison standard peptide antibiotics vancomycin (VAN) and polymyxin B (PMB) were also assayed under identical conditions (Table 2). […] Further, antibacterial activity of active peptidomimetics 1c and 1d were also evaluated against MRSA in presence of 25% v/v human serum as well as bovine serum.

[2] = test system: methicillin resistant S. aureus (ATCC 33591); test: MIC, serial broth dilution; assay type: cell-based, Staphylococcus aureus; details: MHB, 18 h, 37° C.
Procedure: as §1, §2

S. aureus (ATCC 29213) = test: MIC, serial broth dilution; assay type: cell-based, Staphylococcus aureus; details: MHB, 18 h, 37° C.
Procedure: as §1, §2

[3] = test system: human red blood cells (hRBC); test: Hemolytic activity; assay type: cell-based; details: 250 μg/mL, 1 h at 37° C.
Procedure: Hemolytic activity of the peptidomimetics was evaluated on human red blood cells (hRBC) as described previously with minor modifications [FEBS J, 273:4040-4054, 2006; Biochim Biophys Acta., 1798:1864-1875, 2010]. Briefly, 100 μL of fresh hRBC suspension 4% v/v in NaCl/Pi (35 mM phosphate buffer, 150 mM NaCl, pH 7.2) was placed in a 96-well plate. After incubation of the peptidomimetics (100 μL) in the hRBC suspension for 1 h at 37° C., the plates were centrifuged and supernatant (100 μL) was transferred to fresh 96-well plate. Absorbance was read at 540 nm using ELISA plate reader (Molecular Devices). Percent hemolysis was calculated using the following formula: % hemolysis=100[(A−A0)/(At−A0)]
Where, A represents absorbance of sample wells at 540 nm. Also A0 and At represents 0% and 100% hemolysis determined in NaCl/Pi and 1% Triton X-100, respectively (Table 2). […] Peptidomimetics 1e and 1f caused 31% and 30% hemolysis at 250 μg/mL. Peptidomimetics 2d, 2e and 2f caused significant hemolysis with 83%, 96% and 88% damage to hRBCs at […] respectively.

[4] = test system: Staphylococcus epidermidis (ATCC 12228); test: MIC, serial broth dilution; assay type: cell-based; details: MHB, 18 h, 37° C.
Procedure: as §1, §2

[5] = test system: Enterococcus faecalis (ATCC 7080); test: MIC, serial broth dilution; assay type: cell-based; details: MHB, 18 h, 37° C.
Procedure: as §1, §2

[6] = test system: methicillin resistant Staphylococcus epidermidis (ATCC 51625); test: MIC, serial broth dilution; assay type: cell-based; details: MHB, 18 h, 37° C.
Procedure: as §1, §2

Staphylococcus species = test: Antibacterial activity; assay type: cell-based
Procedure: as §2

[7] = test system: Gram-negative bacterial strains; test: Antibacterial activity; assay type: cell-based
Procedure: as §2

MRSA = test: Membrane depolarization with DiSC3(5) dye; assay type: cell-based, Staphylococcus aureus; details: up to the highest concentration tested
Procedure: For determination of membrane depolarizing ability of designed peptidomimetics, a membrane potential sensitive dye DiSC3(5) was used as described previously with minor modifications [Org Biomol. Chem. 10: 8326-8335, 2012; J. Am. Chem. Soc., 132: 18417-18428, 2010.]. Briefly, overnight grown MRSA was sub cultured into MHB for 2-3 h at 37° C. to obtain mid-log phase cultures. The cells were centrifuged at 4000 rpm for 10 min at 25° C., washed, and re-suspended into respiration buffer (5 mM HEPES, 20 mM glucose, pH 7.4) to obtain a diluted suspension of OD600˜0.05. Then DiSC3(5) [0.18 μM in DMSO], was added to 500 μL aliquotes of the re-suspended cells and allowed to stabilize for 1 h. Baseline fluorescence was acquired using a Edinburg F900 spectrofluorometer by excitation at 622 nm and emission at 670 nm in a 1 cm path length cuvette. Bandwidth of 5 nm was employed for excitation and emission. Subsequently, increasing concentrations of test peptidomimetics were added to the stabilized cells and the increase of fluorescence on account of the de-quenching of DiSC3(5) dye was measured after every 2 min to obtain the maximal depolarization. Increase in relative fluorescence unit (RFU) was plotted against increasing concentrations of different peptidomimetics or PMB. […] The increase in fluorescence for lipid tagged peptidomimetics was concentration dependent up to 9.9 μg/mL and henceforth, got saturated resulting into plateau like dose response curves. The experiment was repeated twice on two consecutive days and produced similar results.

[8] = test system: Acinetobacter baumannii (ATCC 19606); test: MIC, serial broth dilution; assay type: cell-based; details: MHB, 18 h, 37° C.
Procedure: as §1, §2

all the tested strains = test: Antibacterial activity; assay type: cell-based; details: series 2
Procedure: as §2

Compound	increase in MIC after 17 passages (S. aureus (ATCC 33591)) [fold]	MIC E. coli. (ATCC 11775) [1]	MIC MRSA (ATCC 33591) [2] [µg/mL]	MIC S. aureus (ATCC 29213) (S. aureus (ATCC 29213)) [µg/mL]	% H, percentage hemolysis of human RBCs [3] [%]	MIC S. epidermidis (ATCC 12228) [4] [µg/mL]	MIC E. facaelis (ATCC 7080) [5] [µg/mL]	MIC MRSE (ATCC 51625) [6] [µg/mL]	activity against Staphylococcus species (Staphylococcus species)	growth inhibition of Gram-negative bacterial strains [7]	change in relative fluorescence unit (RFU), membrane depolarization (MRSA)	MIC A. baumannii (ATCC 19606) [8] [µg/mL]	antibacterial activity (all the tested strains)
O=C(O)c1cn(C2CC2)c2cc(N3CCNCC3)c(F)cc2c1=O [ciprofloxacin, reference compound]	256												
NCCCNCCCCNCCCNC(=O)C(Cc1c[nH]c2ccccc12)NC(=O)C(Cc1c[nH]c2ccccc12)NC(=O)C=Cc1ccc(O)c(O)c1 (stereo not shown) [1b]		14.2	7.1 (≈ 9.63 µM)	0.0035 (≈ 0.00475 µM)	16	3.5 (≈ 4.75 µM)	0.1136 (≈ 0.154 µM)	0.0071 (≈ 0.00963 µM)					
polymyxin B [PMB, reference compound]		0.4	28.4	0.0142		7.1	0.1136	0.0284	relatively poor activity	excellent growth inhibition			
CCCCCCCCCC(=O)NCCCN(CCCCN(CCCN)C(=O)C(N)Cc1c[nH]c2ccccc12)C(=O)C(N)Cc1c[nH]c2ccccc12 (stereo not shown) [2d]		28.4	1.7 (≈ 2.33 µM)	0.0008 (≈ 0.0011 µM)	83	0.8 (≈ 1.1 µM)	0.0284 (≈ 0.039 µM)	0.0017 (≈ 0.00233 µM)			intermediate changes in fluorescence intensity	0.1136 (≈ 0.156 µM)	
NCCCN(CCCCN(CCCNC(=O)C=Cc1ccc(O)c(O)c1)C(=O)C(N)Cc1c[nH]c2ccccc12)C(=O)C(N)Cc1c[nH]c2ccccc12 (stereo not shown) [2b]		>454.4	454.4 (≈ 617 µM)	>0.4544	5								poor activity
NCCCN(CCCCN(CCCN)C(=O)C(N)Cc1c[nH]c2ccccc12)C(=O)C(N)Cc1c[nH]c2ccccc12 (stereo not shown) [2a]		>454.4	>227.2	>0.4544	0	>454.4		0.2272 (≈ 0.395 µM)			only minor increase		poor activity
CCCCCC=CCC=CCCCCCCCC(=O)NC(Cc1c[nH]c2ccccc12)C(=O)NC(Cc1c[nH]c2ccccc12)C(=O)NCCCNCCCCNCCCN (stereo not shown) [1f]		28.4	3.5 (≈ 4.18 µM)	0.0071 (≈ 0.00848 µM)	30	1.7 (≈ 2.03 µM)	0.0284 (≈ 0.0339 µM)	0.0071 (≈ 0.00848 µM)			significant changes in RFU		
CCCCCC=CCC=CCCCCCCCC(=O)NCCCN(CCCCN(CCCN)C(=O)C(N)Cc1c[nH]c2ccccc12)C(=O)C(N)Cc1c[nH]c2ccccc12 (stereo not shown) [2f]		28.4	3.5 (≈ 4.18 µM)	0.0008 (≈ 0.000956 µM)	88	0.8 (≈ 0.956 µM)	0.0142 (≈ 0.017 µM)	0.0017 (≈ 0.00203 µM)			significant changes in RFU	0.0568 (≈ 0.0678 µM)	
NCCCN(CCCCN(CCCNC(=O)Cc1ccc(C(F)(F)F)cc1)C(=O)C(N)Cc1c[nH]c2ccccc12)C(=O)C(N)Cc1c[nH]c2ccccc12 (stereo not shown) [2c]		113.6	28.4 (≈ 37.3 µM)	0.0142 (≈ 0.0187 µM)	1	7.1 (≈ 9.33 µM)		0.0142 (≈ 0.0187 µM)			only marginal changes in RFU	0.1136 (≈ 0.149 µM)	moderate activity
CCCCCCCCCCCC(=O)NCCCN(CCCCN(CCCN)C(=O)C(N)Cc1c[nH]c2ccccc12)C(=O)C(N)Cc1c[nH]c2ccccc12 (stereo not shown) [2e]		28.4	1.7 (≈ 2.25 µM)	0.0008 (≈ 0.00106 µM)	96	0.8 (≈ 1.06 µM)	0.0071 (≈ 0.00938 µM)	0.0017 (≈ 0.00225 µM)			significant changes in RFU	0.1136 (≈ 0.15 µM)	
CCCCCCCCCCCC(=O)NC(Cc1c[nH]c2ccccc12)C(=O)NC(Cc1c[nH]c2ccccc12)C(=O)NCCCNCCCCNCCCN (stereo not shown) [1e]		14.2	3.5 (≈ 4.62 µM)	0.0017 (≈ 0.00225 µM)	31	1.7 (≈ 2.25 µM)	0.0071 (≈ 0.00938 µM)	0.0017 (≈ 0.00225 µM)			significant changes in RFU	0.0568 (≈ 0.075 µM)	
